The series concerns CCRIS mutagenicity, Ames/micronucleus/aberration tests. The series is described as follows: CCRIS mutagenicity studies. The note with it: Test System: AMES SALMONELLA TYPHIMURIUM
The mark [1] stands for this setting: Strain/Indicator: TA98, Metabolic Activation: NONE, Method: STANDARD PLATE.
[2] abbreviates: Strain/Indicator: TA100, Metabolic Activation: NONE, Method: STANDARD PLATE.
The mark [3] stands for this setting: Strain/Indicator: TA1537, Metabolic Activation: NONE, Method: STANDARD PLATE.
[4] abbreviates: Strain/Indicator: TA98, Metabolic Activation: NONE, Method: PREINCUBATION
Where [5] appears, read: Strain/Indicator: TA100, Metabolic Activation: NONE, Method: PREINCUBATION
[6] abbreviates: Strain/Indicator: TA1535, Metabolic Activation: NONE, Method: STANDARD PLATE.

Structures are written as SMILES. Activity calls are given as the source filed them. No rule for the calls is given here.

As to `CCC1C(C)=NN=C(c2ccc(OC)c(OC)c2)c2cc(OC)c(OC)cc21` (stereo unspecified), the mutagenic call (Strain/Indicator: TA97, Metabolic Activation: NONE, Method: STANDARD PLATE) is “inactive; negative”; the mutagenic call (Strain/Indicator: TA97, Metabolic Activation: RAT LIVER S-9, AROCLOR 1254, Method: STANDARD PLATE) is “inactive; negative”; the mutagenic call under setting [1] was “inactive; negative”; the mutagenic call (Strain/Indicator: TA98, Metabolic Activation: RAT LIVER S-9, AROCLOR 1254, Method: STANDARD PLATE) was “inactive; negative”; the mutagenic call under setting [2] was “inactive; negative”; the mutagenic call (Strain/Indicator: TA100, Metabolic Activation: RAT LIVER S-9, AROCLOR 1254, Method: STANDARD PLATE) is “inactive; negative”. The mutagenic call reads like this: (Strain/Indicator: TA102, Metabolic Activation: NONE, Method: STANDARD PLATE) “inactive; negative”; (Strain/Indicator: TA102, Metabolic Activation: RAT LIVER S-9, AROCLOR 1254, Method: STANDARD PLATE) “inactive; negative”; under setting [3], “inactive; negative”; (Strain/Indicator: TA1537, Metabolic Activation: RAT LIVER S-9, AROCLOR 1254, Method: STANDARD PLATE) “inactive; negative”.
Take `O=c1c(O)c2c(c3c1ccc1c3cccn1O)O2`: the mutagenic call under setting [2] is “inactive; negative”.
Turning to `CCCCC(CC)COP(=O)(Oc1ccccc1)Oc1ccccc1` (stereo unspecified), the mutagenic call is “inactive; negative” (Strain/Indicator: TA98, Metabolic Activation: HAMSTER, LIVER, S-9, AROCLOR 1254 (10%), Method: PREINCUBATION); “inactive; negative” under setting [4]; “inactive; negative” (Strain/Indicator: TA98, Metabolic Activation: RAT, LIVER, S-9, AROCLOR 1254 (10%), Method: PREINCUBATION); “inactive; negative” (Strain/Indicator: TA100, Metabolic Activation: HAMSTER, LIVER, S-9, AROCLOR 1254 (10%), Method: PREINCUBATION); “inactive; negative” under setting [5]; “inactive; negative” (Strain/Indicator: TA100, Metabolic Activation: RAT, LIVER, S-9, AROCLOR 1254 (10%), Method: PREINCUBATION). Moreover, the mutagenic call by setting is: (Strain/Indicator: TA1535, Metabolic Activation: HAMSTER, LIVER, S-9, AROCLOR 1254 (10%), Method: PREINCUBATION) “inactive; negative”; (Strain/Indicator: TA1535, Metabolic Activation: NONE, Method: PREINCUBATION) “inactive; negative”; (Strain/Indicator: TA1535, Metabolic Activation: RAT, LIVER, S-9, AROCLOR 1254 (10%), Method: PREINCUBATION) “inactive; negative”; (Strain/Indicator: TA1537, Metabolic Activation: HAMSTER, LIVER, S-9, AROCLOR 1254 (10%), Method: PREINCUBATION) “inactive; negative”; (Strain/Indicator: TA1537, Metabolic Activation: NONE, Method: PREINCUBATION) “inactive; negative”; (Strain/Indicator: TA1537, Metabolic Activation: RAT, LIVER, S-9, AROCLOR 1254 (10%), Method: PREINCUBATION) “inactive; negative”.
With `Cc1c(N=[N+]([O-])c2cccc([N+](=O)[O-])c2C)cccc1[N+](=O)[O-]`, the mutagenic call is “inactive; negative” under setting [4]; “inactive; negative” (Strain/Indicator: TA98, Metabolic Activation: RAT, LIVER, S-9, PHENOBARBITAL AND 5,6-BENZOFLAVONE, Method: PREINCUBATION); “inactive; negative” under setting [5]; “inactive; negative” (Strain/Indicator: TA100, Metabolic Activation: RAT, LIVER, S-9, PHENOBARBITAL AND 5,6-BENZOFLAVONE, Method: PREINCUBATION).
On to `c1ccc2cc3cc4ccccc4cc3cc2c1`, for which the mutagenic call is “inactive; negative” under setting [1]; “active; positive” (Strain/Indicator: TA98, Metabolic Activation: RAT, LIVER, S-9, 3-METHYLCHOLANTHRENE, Method: STANDARD PLATE); “active; positive” (Strain/Indicator: TA98, Metabolic Activation: RAT, LIVER, S-9, AROCLOR 1254, Method: STANDARD PLATE); “active; positive” (Strain/Indicator: TA100, Metabolic Activation: MOUSE, LIVER, S-9, 2,3,7,8-TETRACHLORODIBENZO-P-DIOXIN, Method: STANDARD PLATE); “active; positive” (Strain/Indicator: TA100, Metabolic Activation: MOUSE, LIVER, S-9, 3-METHYLCHOLANTHRENE, Method: STANDARD PLATE); “inactive; negative” under setting [2]. The mutagenic call is “active; positive” (Strain/Indicator: TA100, Metabolic Activation: RAT, LIVER, S-9, 3-METHYLCHOLANTHRENE, Method: STANDARD PLATE); “active; positive” (Strain/Indicator: TA100, Metabolic Activation: RAT, LIVER, S-9, AROCLOR 1254, Method: STANDARD PLATE); “inactive; negative” under setting [6]; “inactive; negative” (Strain/Indicator: TA1535, Metabolic Activation: RAT, LIVER, S-9, 3-METHYLCHOLANTHRENE, Method: STANDARD PLATE); “inactive; negative” (Strain/Indicator: TA1535, Metabolic Activation: RAT, LIVER, S-9, AROCLOR 1254, Method: STANDARD PLATE); “inactive; negative” under setting [3]. Besides, the mutagenic call is “active; positive” (Strain/Indicator: TA1537, Metabolic Activation: RAT, LIVER, S-9, 3-METHYLCHOLANTHRENE, Method: STANDARD PLATE); “active; positive” (Strain/Indicator: TA1537, Metabolic Activation: RAT, LIVER, S-9, AROCLOR 1254, Method: STANDARD PLATE); “inactive; negative” (Strain/Indicator: TA1538, Metabolic Activation: NONE, Method: STANDARD PLATE); “active; positive” (Strain/Indicator: TA1538, Metabolic Activation: RAT, LIVER, S-9, 3-METHYLCHOLANTHRENE, Method: STANDARD PLATE); “active; positive” (Strain/Indicator: TA1538, Metabolic Activation: RAT, LIVER, S-9, AROCLOR 1254, Method: STANDARD PLATE).
In the case of `CN(Cc1cccc(C#N)c1)N=O`, the mutagenic call was “active; positive” (Strain/Indicator: TA1535, Metabolic Activation: HAMSTER, LIVER, S-9, AROCLOR 1254, Method: STANDARD PLATE) and “active; positive” under setting [6].

Values taken from PubChem BioAssay AID1259407 (Chemical Carcinogenesis Research Information System (CCRIS), 2018).
